Source: ChEMBL document CHEMBL4665820, “Discovery of VU6027459: A First-in-Class Selective and CNS Penetrant mGlu Positive Allosteric Modulator Tool Compound” (ACS Med Chem Lett, 2020)
The source made the active and inactive calls. The calls are words filed in the database; no cut-off is given here.

Tests used:
[1] = target: dopamine transporter (DAT) (Homo sapiens, UniProt Q01959); assay: Displacement of […] from recombinant human Dopamine transporter at 10 uM after 120 mins by scintillation counting analysis relative to control; assay type: ADME
[2] = Volume of distribution at steady state in Sprague-Dawley rat at 0.2 to 0.25 mg/kg, iv measured upto 24 hrs by LC/MS/MS analysis; assay type: ADME, organism-based; settings: in vivo, dose 0.2-0.25 mg/kg, read-out: Vdss
Rattus norvegicus [3] = organism: Rattus norvegicus; assay: Displacement of [3H]-Flunitrazepam from GABAA channel flunitrazepam binding site in rat brain at 10 uM incubated for 60 mins by scintillation counting analysis relative to control; assay type: tissue-based
[4] = Plasma clearance in Sprague-Dawley rat at 0.2 to 0.25 mg/kg, iv measured upto 24 hrs by LC/MS/MS analysis; assay type: ADME, organism-based; settings: dose 0.2-0.25 mg/kg
[5] = target: B2 bradykinin receptor (Homo sapiens) (UniProt P30411); assay: Displacement of [3H]bradykinin from human recombinant B2 receptor at 10 uM after 60 mins by scintillation counting analysis relative to control
Rattus norvegicus [6] = organism: Rattus norvegicus; assay: Displacement of [3H]-Muscimol from GABAA channel muscimol binding site in rat brain at 10 uM incubated for 10 mins by scintillation counting analysis relative to control; assay type: tissue-based
[7] = target: Endothelin-1 receptor (Homo sapiens) (UniProt P25101); assay: Displacement of [125I]-endothelin-1 from human recombinant ETA receptor at 10 uM after 120 mins by scintillation counting analysis relative to control
[8] = target: Kappa-type opioid receptor (Homo sapiens) (UniProt P41145); assay: Displacement of [3H]U69593 from human kappa receptor at 10 uM after 60 mins by scintillation counting analysis relative to control
[9] = target: Mu-type opioid receptor (Homo sapiens) (UniProt P35372); assay: Displacement of [3H]DAMGO from human recombinant mu receptor at 10 uM after 120 mins by scintillation counting analysis relative to control
hERG (KCNH2) = hERG (KCNH2) (Homo sapiens, UniProt Q12809); assay: Displacement of [3H]-Astemizole from human recombinant full length ERG channel at 10 uM incubated for 60 mins by scintillation counting analysis relative to control; settings: probe [3H]-astemizole
[10] = target: Neuropeptide Y receptor type 2 (Homo sapiens) (UniProt P49146); assay: Displacement of [125I]peptide YY from human Y2 receptor at 10 uM after 120 mins by scintillation counting analysis relative to control
[11] = target: T1, Metabotropic glutamate receptor 7 (Rattus norvegicus, UniProt P35400); assay: Positive allosteric modulation of rat mGlu7 receptor expressed in HEK293 cells co-expressing Gai5 assessed as potentiation of L-AP4-induced calcium mobilization preincubated for 140 secs and treated with EC20 L-AP4 for 125 secs and followed by subsequent addition of EC80 L-AP4 by Fluo-4-AM dye based fluorescence assay; assay type: functional, cell-based; settings: read-out: EC50
[12] = target: Cysteinyl leukotriene receptor 1 (Homo sapiens) (UniProt Q9Y271); assay: Displacement of [3H]-LTD4 from human recombinant CysLT1 Leukotriene receptor at 10 uM incubated for 60 mins by scintillation counting analysis relative to control
[13] = target: T1, Metabotropic glutamate receptor 7; assay: Positive allosteric modulation of rat mGlu7 expressed in HEK293 cells co- expressing GIRK assessed as potentiation of L-AP4-induced thallium flux incubated for 140 sec by FluoZin2-AM dye based fluorescence analysis; assay type: cell-based
[14] = Half-life in Sprague-Dawley rat at 0.2 to 0.25 mg/kg, iv measured upto 24 hrs by LC/MS/MS analysis; assay type: ADME, organism-based; settings: in vivo, dose 0.2-0.25 mg/kg
Rattus norvegicus [15] = organism: Rattus norvegicus; assay: Displacement of [3H]-GABA in GABA transporter in rat brain membrane at 10 uM incubated for 30 mins by scintillation counting analysis elative to control; assay type: cell membranes
[16] = Hepatic intrinsic clearance in rat liver microsomes at 1 uM preincubated for 5 mins followed by NADPH addition and measured up to 45 mins by LC-MS/MS analysis; assay type: ADME, Microsome; settings: read-out: CLH
[17] = target: Metabotropic glutamate receptor 7 (Homo sapiens) (UniProt Q14831); assay: Agonist activity at human mGlu7 receptor; settings: tested as the 2H-labelled form
[18] = Hepatic intrinsic clearance in mouse liver microsomes at 1 uM preincubated for 5 mins followed by NADPH addition and measured up to 45 mins by LC-MS/MS analysis; assay type: ADME, Microsome; settings: read-out: CLH
[19] = target: Metabotropic glutamate receptor 7 (Homo sapiens) (UniProt Q14831); assay: Positive allosteric modulation of human mGlu7 receptor; settings: filed as positive allosteric modulator; tested as the 2H-labelled form

T1 sequence (P35400 whole entry): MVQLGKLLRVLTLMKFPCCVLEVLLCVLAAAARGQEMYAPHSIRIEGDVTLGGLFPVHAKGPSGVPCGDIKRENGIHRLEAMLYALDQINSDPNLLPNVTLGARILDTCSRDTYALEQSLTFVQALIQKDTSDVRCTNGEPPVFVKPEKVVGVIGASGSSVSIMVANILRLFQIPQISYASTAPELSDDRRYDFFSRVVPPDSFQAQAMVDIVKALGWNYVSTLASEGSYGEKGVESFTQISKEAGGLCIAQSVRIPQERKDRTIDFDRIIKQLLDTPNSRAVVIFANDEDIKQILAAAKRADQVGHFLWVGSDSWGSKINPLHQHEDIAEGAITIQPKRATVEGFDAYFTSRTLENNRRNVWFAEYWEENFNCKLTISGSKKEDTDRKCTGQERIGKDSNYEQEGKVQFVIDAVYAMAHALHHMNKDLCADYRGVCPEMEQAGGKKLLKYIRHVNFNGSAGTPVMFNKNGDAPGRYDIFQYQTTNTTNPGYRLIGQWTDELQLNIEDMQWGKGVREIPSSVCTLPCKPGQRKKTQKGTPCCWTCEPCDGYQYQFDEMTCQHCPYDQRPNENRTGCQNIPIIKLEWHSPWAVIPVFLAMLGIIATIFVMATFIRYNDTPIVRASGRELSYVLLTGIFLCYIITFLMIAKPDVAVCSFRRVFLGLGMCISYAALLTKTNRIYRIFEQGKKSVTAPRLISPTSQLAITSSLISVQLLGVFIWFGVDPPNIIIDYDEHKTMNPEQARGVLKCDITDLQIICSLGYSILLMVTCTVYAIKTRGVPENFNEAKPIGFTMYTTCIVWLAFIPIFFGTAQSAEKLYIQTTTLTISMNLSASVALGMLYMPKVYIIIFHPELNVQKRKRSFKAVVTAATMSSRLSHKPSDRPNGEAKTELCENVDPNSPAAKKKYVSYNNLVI
Mu-type opioid receptor (Homo sapiens), sequence (P35372 whole entry): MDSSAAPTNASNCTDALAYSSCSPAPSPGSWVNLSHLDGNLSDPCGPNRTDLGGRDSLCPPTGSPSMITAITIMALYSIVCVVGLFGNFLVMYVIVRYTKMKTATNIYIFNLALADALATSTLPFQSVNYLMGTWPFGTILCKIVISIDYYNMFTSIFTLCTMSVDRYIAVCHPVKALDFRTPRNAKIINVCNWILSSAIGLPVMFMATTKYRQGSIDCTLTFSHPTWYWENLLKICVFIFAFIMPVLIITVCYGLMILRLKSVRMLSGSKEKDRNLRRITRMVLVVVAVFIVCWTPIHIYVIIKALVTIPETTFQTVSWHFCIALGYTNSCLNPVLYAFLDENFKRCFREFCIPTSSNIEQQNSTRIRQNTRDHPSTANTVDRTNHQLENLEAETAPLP
Neuropeptide Y receptor type 2 (Homo sapiens), sequence (P49146 whole entry): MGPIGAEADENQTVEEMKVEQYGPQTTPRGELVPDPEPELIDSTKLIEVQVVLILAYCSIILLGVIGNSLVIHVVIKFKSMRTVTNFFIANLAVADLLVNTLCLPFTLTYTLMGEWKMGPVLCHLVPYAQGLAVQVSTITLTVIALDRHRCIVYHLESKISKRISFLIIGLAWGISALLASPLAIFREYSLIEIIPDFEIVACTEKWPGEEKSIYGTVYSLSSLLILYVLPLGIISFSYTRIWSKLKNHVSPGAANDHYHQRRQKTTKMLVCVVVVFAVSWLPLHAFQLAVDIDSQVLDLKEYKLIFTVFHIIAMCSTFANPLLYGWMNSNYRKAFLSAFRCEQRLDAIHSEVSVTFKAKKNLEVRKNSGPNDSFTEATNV
Metabotropic glutamate receptor 7 (Homo sapiens), sequence (Q14831 whole entry): as the sequence (P35400 whole entry) above, with G5R, V27A, H454N, T488S, S520A, N578D counted along it
Kappa-type opioid receptor (Homo sapiens), sequence (P41145 whole entry): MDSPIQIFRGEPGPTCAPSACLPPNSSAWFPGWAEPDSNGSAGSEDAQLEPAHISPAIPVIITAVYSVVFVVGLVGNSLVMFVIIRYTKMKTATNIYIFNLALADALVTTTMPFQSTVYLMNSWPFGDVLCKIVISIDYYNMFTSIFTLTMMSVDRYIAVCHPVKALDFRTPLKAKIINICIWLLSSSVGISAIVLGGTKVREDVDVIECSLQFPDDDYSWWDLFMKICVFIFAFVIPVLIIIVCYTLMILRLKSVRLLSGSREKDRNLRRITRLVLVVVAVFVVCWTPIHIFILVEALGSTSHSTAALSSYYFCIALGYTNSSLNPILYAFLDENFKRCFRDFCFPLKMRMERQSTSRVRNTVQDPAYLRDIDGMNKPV
Cysteinyl leukotriene receptor 1 (Homo sapiens), sequence (Q9Y271 whole entry): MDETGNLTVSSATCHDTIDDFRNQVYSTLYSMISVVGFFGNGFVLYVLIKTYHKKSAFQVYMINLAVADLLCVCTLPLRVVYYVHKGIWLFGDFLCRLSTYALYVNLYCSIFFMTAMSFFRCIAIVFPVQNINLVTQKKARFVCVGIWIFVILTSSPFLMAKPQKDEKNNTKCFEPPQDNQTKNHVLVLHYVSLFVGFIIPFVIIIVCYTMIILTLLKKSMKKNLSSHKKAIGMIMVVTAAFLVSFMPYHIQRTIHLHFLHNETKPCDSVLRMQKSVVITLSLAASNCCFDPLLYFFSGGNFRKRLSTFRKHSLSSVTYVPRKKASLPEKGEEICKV
Endothelin-1 receptor (Homo sapiens), sequence (P25101 whole entry): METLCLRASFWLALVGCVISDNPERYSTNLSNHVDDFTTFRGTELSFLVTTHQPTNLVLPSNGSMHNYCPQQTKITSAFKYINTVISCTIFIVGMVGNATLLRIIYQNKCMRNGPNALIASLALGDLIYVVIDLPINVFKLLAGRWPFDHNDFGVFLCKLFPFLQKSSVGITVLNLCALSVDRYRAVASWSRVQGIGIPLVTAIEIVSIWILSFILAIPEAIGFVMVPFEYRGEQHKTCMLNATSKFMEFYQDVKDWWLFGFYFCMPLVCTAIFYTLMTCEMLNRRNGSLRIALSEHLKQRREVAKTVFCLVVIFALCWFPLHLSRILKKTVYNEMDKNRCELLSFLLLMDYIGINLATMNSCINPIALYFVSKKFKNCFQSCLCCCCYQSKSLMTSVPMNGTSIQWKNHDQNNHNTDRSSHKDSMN
B2 bradykinin receptor (Homo sapiens), sequence (P30411 whole entry): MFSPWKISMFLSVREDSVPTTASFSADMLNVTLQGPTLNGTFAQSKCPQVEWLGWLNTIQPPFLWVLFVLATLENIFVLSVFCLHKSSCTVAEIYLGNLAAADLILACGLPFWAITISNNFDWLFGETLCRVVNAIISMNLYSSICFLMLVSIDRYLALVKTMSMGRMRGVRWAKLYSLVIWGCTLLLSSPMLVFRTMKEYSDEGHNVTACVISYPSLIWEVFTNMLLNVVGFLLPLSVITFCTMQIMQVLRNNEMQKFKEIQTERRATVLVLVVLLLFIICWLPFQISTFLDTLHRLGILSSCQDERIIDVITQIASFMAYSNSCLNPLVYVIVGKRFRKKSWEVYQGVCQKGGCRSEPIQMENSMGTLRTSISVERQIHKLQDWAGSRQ
dopamine transporter (DAT), sequence (Q01959 whole entry): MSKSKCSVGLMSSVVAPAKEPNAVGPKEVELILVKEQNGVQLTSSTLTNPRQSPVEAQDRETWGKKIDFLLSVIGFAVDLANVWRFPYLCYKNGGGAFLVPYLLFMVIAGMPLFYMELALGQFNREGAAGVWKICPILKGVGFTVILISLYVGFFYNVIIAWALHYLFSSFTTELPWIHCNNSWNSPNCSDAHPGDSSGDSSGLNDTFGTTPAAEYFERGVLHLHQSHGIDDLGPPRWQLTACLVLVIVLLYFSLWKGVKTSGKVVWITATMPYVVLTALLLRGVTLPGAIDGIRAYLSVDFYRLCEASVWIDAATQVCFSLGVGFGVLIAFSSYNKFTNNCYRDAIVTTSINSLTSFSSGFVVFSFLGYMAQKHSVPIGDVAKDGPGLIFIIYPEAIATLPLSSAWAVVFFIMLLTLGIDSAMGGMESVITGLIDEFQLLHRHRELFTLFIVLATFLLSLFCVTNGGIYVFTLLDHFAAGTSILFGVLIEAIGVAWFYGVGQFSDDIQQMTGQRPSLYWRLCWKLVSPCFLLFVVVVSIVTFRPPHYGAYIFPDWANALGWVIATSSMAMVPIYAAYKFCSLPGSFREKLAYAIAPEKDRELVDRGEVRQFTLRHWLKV

With `COc1cccc2c(N3CCN(c4ccccc4F)CC3)c(C#N)cnc12` the inhibition at 2 h, 10 µM [1] was 85%, the Vd [2] was 4.1 L/kg and the inhibition (Rattus norvegicus [3]) was less than 50%. For the same compound, the clearance [4] was 47.5 mL/min/kg, the inhibition [5] was less than 50% and the inhibition (Rattus norvegicus [6]) was less than 50%. It also gave an inhibition [7] of less than 50%, an inhibition [8] of less than 50% and an inhibition [9] of less than 50%. It also gave an inhibition at 1 h, 10 µM (hERG (KCNH2)) of less than 50%, an inhibition [10] of less than 50% and an EC50 [11] of 1100 nM. It also gave an inhibition [12] of less than 50%, an EC50 [13] of 879 nM and a half-life [14] of 45 min. For the same compound, the inhibition (Rattus norvegicus [15]) was less than 50%.
For `COc1cc(F)cc2c(N3CCN(c4ccccc4F)CC3)c(C#N)cnc12`, the CLint scaled at 1 µM [16] was 56 mL/min/kg, the inhibition (Rattus norvegicus [3]; tested as the 2H-labelled form) was less than 50% and the Activity [17] was “inactive”. It also gave an inhibition ([5]; tested as the 2H-labelled form) of less than 50%, an inhibition (Rattus norvegicus [6]; tested as the 2H-labelled form) of less than 50% and an inhibition ([7]; tested as the 2H-labelled form) of less than 50%. For the same compound, the CLint scaled at 1 µM [18] was 87 mL/min/kg, the inhibition ([8]; tested as the 2H-labelled form) was less than 50% and the inhibition ([9]; tested as the 2H-labelled form) was less than 50%. The Activity [19] was “Active”, the inhibition ([10]; tested as the 2H-labelled form) was less than 50% and the EC50 [11] was 1400 nM. For the same compound, the inhibition ([12]; tested as the 2H-labelled form) was less than 50% and the inhibition (Rattus norvegicus [15]; tested as the 2H-labelled form) was less than 50%.
